Laboratory results from the supplement of paper PMC10307832.

What was measured:
Experiment in all cases: relative viability (nuclei count vs DMSO), 5 days (fraction); higher = more cells survive
[1] = compound: COc1cc([C@@H]2c3cc4c(cc3[C@@H](O[C@@H]3O[C@@H]5CO[C@@H](C)O[C@H]5[C@H](O)[C@H]3O)[C@H]3COC(=O)[C@H]23)OCO4)cc(OC)c1O [Etoposide] + Cc1cc(Nc2cc(N3CCN(C)CC3)nc(Sc3ccc(NC(=O)C4CC4)cc3)n2)n[nH]1 [Tozasertib] (partner 0.1 µM)
How it was run: (§1)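 Cells from lung cancer lines were seeded into 1536-well plates and, one day later, dosed by pin tool. Treatments were either a single drug or a fixed dose of an anchor drug with five library-drug doses (not always all listed) in √10 steps. After 5 days, nuclei were stained in a one-step fixation (final 0.05% Triton X-100, 1% formaldehyde, 1 ug/ml Hoechst) and counted on 4× images, and relative viability is the treated-to-vehicle nuclei ratio, as the median of duplicate plates.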

[2] = compound: COc1cc([C@@H]2c3cc4c(cc3[C@@H](O[C@@H]3O[C@@H]5CO[C@@H](C)O[C@H]5[C@H](O)[C@H]3O)[C@H]3COC(=O)[C@H]23)OCO4)cc(OC)c1O [Etoposide] + O=C(c1cc(Cc2n[nH]c(=O)c3ccccc23)ccc1F)N1CCN(C(=O)C2CC2)CC1 [Olaparib] (partner 8 µM)
How it was run: as §1

[3] = compound: CC1=C(N=C(N=C1N)[C@H](CC(=O)N)NC[C@@H](C(=O)N)N)C(=O)N[C@@H]([C@H](C2=CN=CN2)OC3C(C(C(C(O3)CO)O)O)OC4C(C(C(C(O4)CO)O)OC(=O)N)O)C(=O)N[C@H](C)[C@H]([C@H](C)C(=O)N[C@@H]([C@@H](C)O)C(=O)NCCC5=NC(=CS5)C6=NC(=CS6)C(=O)NCCC[S+](C)C)O [Bleomycin] + O=C(CCCCCCC(=O)Nc1ccccc1)NO [Vorinostat] (partner 1 µM); conditions: main component drawn
How it was run: as §1

[4] = compound: COc1cc([C@@H]2c3cc4c(cc3[C@@H](O[C@@H]3O[C@@H]5CO[C@@H](C)O[C@H]5[C@H](O)[C@H]3O)[C@H]3COC(=O)[C@H]23)OCO4)cc(OC)c1O [Etoposide] + CCNC(=O)c1noc(-c2cc(C(C)C)c(O)cc2O)c1-c1ccc(CN2CCOCC2)cc1 [Luminespib] (partner 0.01 µM)
How it was run: as §1

| Cell Line | relative viability ([1]; first compound 0.01 µM) | relative viability ([1]; first compound 0.03162 µM) | relative viability ([1]; first compound 0.1 µM) | relative viability ([1]; first compound 0.3162 µM) | relative viability ([1]; first compound 1 µM) | relative viability ([2]; first compound 0.01 µM) | relative viability ([2]; first compound 0.03162 µM) | relative viability ([2]; first compound 0.1 µM) | relative viability ([2]; first compound 0.3162 µM) | relative viability ([2]; first compound 1 µM) | relative viability ([3]; first compound 0.01 µM) | relative viability ([3]; first compound 0.03162 µM) | relative viability ([3]; first compound 0.1 µM) | relative viability ([3]; first compound 0.3162 µM) | relative viability ([3]; first compound 1 µM) | relative viability ([4]; first compound 0.01 µM) | relative viability ([4]; first compound 0.03162 µM) | relative viability ([4]; first compound 0.1 µM) | relative viability ([4]; first compound 0.3162 µM) | relative viability ([4]; first compound 1 µM) |
| --- | --- | --- | --- | --- | --- | --- | --- | --- | --- | --- | --- | --- | --- | --- | --- | --- | --- | --- | --- | --- |
| HARA | 0.149 | 0.112 | 0.127 | 0.0757 | 0.0743 | 0.698 | 0.764 | 0.652 | 0.376 | 0.206 | 0.458 | 0.469 | 0.317 | 0.258 | 0.173 | 0.403 | 0.999 | 0.682 | 0.226 | 0.106 |
| NCI-H2126 | 0.739 | 0.854 | 0.632 | 0.63 | 0.254 | 0.882 | 0.938 | 0.658 | 0.585 | 0.336 | 0.785 | 0.692 | 0.771 | 0.442 | 0.5 | 0.927 | 0.877 | 0.545 | 0.622 | 0.33 |
| NCI-H1437 | 0.433 | 0.4 | 0.429 | 0.293 | 0.318 | 0.597 | 0.646 | 0.56 | 0.394 | 0.323 | 0.712 | 0.758 | 0.733 | 0.458 | 0.413 | 1.1 | 1.07 | 1.14 | 0.7 | 0.509 |
| NCI-H2342 | 0.528 | 0.512 | 0.379 | 0.315 | 0.272 | 0.474 | 0.398 | 0.267 | 0.208 | 0.211 | 0.786 | 0.735 | 0.652 | 0.551 | 0.491 | 0.622 | 0.728 | 0.425 | 0.352 | 0.29 |
| ChaGo-K-1 | 0.192 | 0.212 | 0.211 | 0.181 | 0.187 | 0.399 | 0.44 | 0.332 | 0.219 | 0.179 | 0.512 | 0.526 | 0.483 | 0.303 | 0.279 | 0.467 | 0.473 | 0.38 | 0.211 | 0.229 |
| NCI-H661 | 0.342 | 0.374 | 0.332 | 0.323 | 0.353 | 0.776 | 0.819 | 0.686 | 0.463 | 0.471 | 0.777 | 0.708 | 0.565 | 0.376 | 0.346 | 0.956 | 0.901 | 0.898 | 0.553 | 0.435 |
| COR-L23 | 0.189 | 0.236 | 0.262 | 0.145 | 0.109 | 0.368 | 0.294 | 0.375 | 0.223 | 0.169 | 0.273 | 0.392 | 0.218 | 0.104 | 0.0886 | 0.573 | 0.802 | 0.536 | 0.214 | 0.153 |
| COR-L 105 | 0.385 | 0.345 | 0.291 | 0.353 | 0.366 | 0.719 | 0.859 | 0.701 | 0.572 | 0.654 | 0.716 | 0.719 | 0.617 | 0.435 | 0.486 | 0.96 | 0.765 | 0.758 | 0.625 | 0.776 |
| LK-2 | 0.207 | 0.175 | 0.18 | 0.21 | 0.205 | 0.618 | 0.81 | 0.511 | 0.287 | 0.205 | 0.232 | 0.281 | 0.217 | 0.209 | 0.195 | 0.206 | 0.181 | 0.154 | 0.195 | 0.159 |
| 201T | 0.824 | 0.995 | 0.886 | 0.709 | 0.465 | 0.818 | 0.804 | 0.771 | 0.633 | 0.384 | 0.79 | 0.839 | 0.805 | 0.732 | 0.553 | 0.839 | 1.11 | 0.952 | 0.754 | 0.539 |
| HCC-44 | 0.759 | 0.886 | 1.11 | 0.57 | 0.317 | 1.02 | 1.04 | 1.04 | 0.918 | 0.543 | 0.906 | 0.989 | 0.733 | 0.459 | 0.383 | 1.03 | 0.84 | 0.774 | 0.411 | 0.279 |
| NCI-H647 | 0.224 | 0.0009 | 0.271 | 0.205 | 0.112 | 0.459 | 0.516 | 0.33 | 0.0871 | 0.0592 | 0.205 | 0.132 | 0.105 | 0.0704 | 0.0607 | 0.134 | 0.164 | 0.164 | 0.134 | 0.0949 |
| H3255 | 0.631 | 0.605 | 0.577 | 0.238 | 0.249 | 0.524 | 0.571 | 0.588 | 0.379 | 0.286 | 0.737 | 0.891 | 0.538 | 0.682 | 0.363 | 0.877 | 0.829 | 0.576 | 0.703 | 0.379 |
| NCI-H650 | 0.693 | 0.717 | 0.498 | 0.258 | 0.166 | 0.393 | 0.317 | 0.314 | 0.184 | 0.152 | 0.295 | 0.441 | 0.376 | 0.328 | 0.212 | 0.695 | 0.895 | 0.336 | 0.179 | 0.174 |
| NCI-H2023 | 0.308 | 0.337 | 0.429 | 0.291 | 0.109 | 0.415 | 0.452 | 0.356 | 0.137 | 0.111 | 0.409 | 0.385 | 0.338 | 0.0999 | 0.114 | 0.709 | 0.829 | 0.708 | 0.195 | 0.112 |
| NCI-H2347 | 0.518 | 0.554 | 0.419 | 0.433 | 0.291 | 0.55 | 0.543 | 0.58 | 0.353 | 0.411 | 0.487 | 0.518 | 0.414 | 0.338 | 0.39 | 0.498 | 0.407 | 0.299 | 0.237 | 0.285 |
| NCI-H1944 | 0.258 | 0.278 | 0.211 | 0.182 | 0.168 | 0.378 | 0.417 | 0.305 | 0.265 | 0.197 | 0.284 | 0.244 | 0.265 | 0.154 | 0.152 | 0.519 | 0.936 | 0.597 | 0.404 | 0.247 |
| NCI-H1793 | 0.324 | 0.311 |  | 0.316 | 0.185 |  | 0.861 | 0.608 | 0.454 | 0.295 | 0.714 | 0.647 | 0.525 | 0.215 | 0.141 | 0.203 | 0.184 |  | 0.181 | 0.169 |
| NCI-H596 | 0.774 | 1.05 | 0.843 | 0.543 | 0.683 | 0.64 | 0.698 | 0.724 | 0.537 | 0.561 | 0.479 | 0.438 | 0.438 | 0.22 | 0.293 | 1.01 | 0.883 | 0.986 | 0.771 | 0.681 |
| NCI-H520 | 0.427 | 0.408 |  | 0.462 | 0.396 | 0.296 | 0.328 | 0.437 | 0.293 | 0.225 | 0.592 | 0.743 | 0.589 | 0.574 | 0.416 | 0.204 | 0.198 |  | 0.218 | 0.219 |
| EKVX | 0.412 | 0.355 | 0.312 | 0.326 | 0.221 | 0.832 | 0.955 | 0.658 | 0.647 | 0.293 | 0.724 | 0.611 | 0.607 | 0.366 | 0.411 | 0.921 | 0.885 | 0.444 | 0.658 | 0.307 |
| NCI-H358 | 0.112 | 0.107 | 0.107 | 0.0887 | 0.0917 | 0.692 | 0.519 | 0.521 | 0.104 | 0.0937 | 0.539 | 0.722 | 0.661 | 0.327 | 0.217 | 0.243 | 0.327 | 0.209 | 0.179 | 0.095 |
| EPLC-272H | 0.336 | 0.213 | 0.211 | 0.235 | 0.112 | 0.833 | 0.685 | 0.704 | 0.474 | 0.254 | 0.296 | 0.323 | 0.223 | 0.12 | 0.0952 | 0.185 | 0.238 | 0.207 | 0.265 | 0.12 |
| NCI-H1395 | 0.616 | 0.758 | 0.665 | 0.74 | 0.592 | 0.444 | 0.453 | 0.458 | 0.479 | 0.397 | 0.574 | 0.656 | 0.403 | 0.35 | 0.359 | 0.713 | 0.539 | 0.607 | 0.54 | 0.415 |
| NCI-H2228 | 0.287 | 0.191 | 0.247 | 0.169 | 0.117 | 0.586 | 0.524 | 0.776 | 0.296 | 0.146 | 0.637 | 0.557 | 0.486 | 0.17 | 0.22 | 0.159 | 0.141 | 0.154 | 0.117 | 0.147 |
| LXF-289 | 0.209 | 0.166 | 0.196 | 0.111 | 0.0978 | 1.1 | 1.07 | 0.954 | 0.234 | 0.1 | 0.723 | 0.718 | 0.614 | 0.331 | 0.167 | 0.569 | 0.861 | 0.79 | 0.367 | 0.129 |
| NCI-H2009 | 0.767 | 0.745 | 0.782 | 0.557 | 0.431 | 0.64 | 0.627 | 0.692 | 0.45 | 0.275 | 0.662 | 0.739 | 0.854 | 0.541 | 0.36 | 1.03 | 0.961 | 1 | 0.644 | 0.476 |
